Results: the supplement of paper PMC10307832

Assays:
Crenolanib = compound: CC1(COc2ccc3c(c2)ncn3-c2ccc3cccc(N4CCC(N)CC4)c3n2)COC1 [Crenolanib]; test: relative viability (nuclei count vs DMSO), 5 days (fraction); higher = more cells survive
Procedure, shortened: (§1)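 Nuclei counted with MetaXpress define viability as the ratio of treated to vehicle wells, given as a median across plates. The lung cancer cell lines were in 1536-well plates, pinned with five √10-spaced library-drug doses and imaged at 4× after 5 days and Hoechst staining. Plates passed with control CV below 25% and at least one doubling.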

Tivantinib = compound: O=C1NC(=O)[C@@H](c2cn3c4c(cccc24)CCC3)[C@@H]1c1c[nH]c2ccccc12 [Tivantinib]; test: as above
Procedure, shortened: as §1

Cell Line | relative viability (Crenolanib; 0.01 µM) | relative viability (Crenolanib; 0.03162 µM) | relative viability (Crenolanib; 0.1 µM) | relative viability (Crenolanib; 0.3162 µM) | relative viability (Crenolanib; 1 µM) | relative viability (Tivantinib; 0.01 µM) | relative viability (Tivantinib; 0.03162 µM) | relative viability (Tivantinib; 0.1 µM) | relative viability (Tivantinib; 0.3162 µM)
201T | 0.97 | 0.983 | 0.972 | 0.988 | 1.01 | 0.966 | 0.938 | 0.924 | 1.01
A549 | 1.05 | 0.977 | 0.959 | 1.12 | 0.949 | 0.993 | 0.979 | 0.793 | 0.992
A-427 | 0.953 | 0.969 | 0.976 | 0.948 | 0.927 | 0.959 | 0.978 | 0.976 | 1.02
ABC-1 | 1.08 | 0.876 | 0.855 | 0.985 | 0.795 | 0.887 | 0.98 | 0.821 | 0.805
BEN | 0.989 | 0.877 | 0.962 | 0.988 | 0.965 | 1 | 0.854 | 0.873 | 0.786
CAL-12T | 1.07 | 0.948 | 0.984 | 1.05 | 0.992 | 1.1 | 0.853 | 0.969 | 0.627
COR-L23 | 1.04 | 1.02 | 0.952 | 1.04 | 0.915 | 1.06 | 0.933 | 0.942 | 1.11
COR-L 105 | 1.03 | 0.953 | 0.852 | 0.963 | 0.915 | 0.912 | 0.734 | 0.892 | 0.537
Calu-6 | 1.1 | 0.992 | 0.978 | 1.08 | 0.959 | 0.989 | 1.03 | 0.977 | 0.989
ChaGo-K-1 | 0.933 | 0.977 | 0.941 | 0.931 | 0.937 | 0.982 | 1.01 | 0.968 | 0.909
EBC-1 | 1.06 | 0.961 | 0.989 | 1.03 | 1.03 | 1.05 | 0.859 | 0.933 | 0.994
EKVX | 1.06 | 0.871 | 0.916 | 1.05 | 1 | 0.953 | 0.957 | 0.936 | 0.371
EMC-BAC-2 | 1.08 | – | 0.994 | 1.13 | 0.84 | 1.01 | 0.962 | 0.997 | 0.998
EPLC-272H | 0.905 | 0.893 | 0.838 | 1.04 | 1.11 | 1.05 | 0.88 | 0.851 | 0.455
H3255 | 1.02 | 0.935 | 0.929 | 0.984 | 0.918 | 0.971 | 0.934 | 1 | –
HARA | 1.07 | 1 | 0.945 | 1 | 1.05 | 0.982 | 0.775 | 0.941 | 0.625
HCC-15 | 1.01 | 0.991 | 0.93 | 1.08 | 0.803 | 0.988 | 0.91 | 0.977 | 1.08
HCC-44 | 1.04 | 0.965 | 0.994 | 0.986 | 0.806 | 1.02 | 1.03 | 1.02 | 0.908
HCC-78 | 1.01 | 0.808 | 0.84 | 1.02 | 0.804 | 0.979 | 0.922 | 0.917 | 0.655
